Measurements taken from ChEMBL document CHEMBL4665820, “Discovery of VU6027459: A First-in-Class Selective and CNS Penetrant mGlu Positive Allosteric Modulator Tool Compound” (ACS Med Chem Lett, 2020).

Tests used:
[1] = target: Metabotropic glutamate receptor 7 (Rattus norvegicus) (UniProt P35400); assay: Positive allosteric modulation of rat mGlu7 expressed in HEK293 cells co- expressing GIRK assessed as potentiation of L-AP4-induced thallium flux incubated for 140 sec by FluoZin2-AM dye based fluorescence analysis relative to maximal induction of L-AP4; type: cell-based; conditions: filed as positive allosteric modulator
[2] = Fraction unbound in rat plasma at 5 uM incubated for 4 hrs by equilibrium dialysis based LC-MS/MS analysis; type: ADME, cell-free
[3] = Plasma to brain permeability coefficient, Kp of the compound in Sprague-Dawley rat at 0.2 mg/kg, iv measured after 0.25 hrs by LC-MS/MS analysis; type: ADME, organism-based
[4] = Fraction unbound in rat brain at 5 uM incubated for 6 hrs by equilibrium dialysis based LC-MS/MS analysis; type: ADME, tissue-based
[5] = Unbound plasma to brain permeability coefficient, Kp of the compound in Sprague-Dawley rat at 0.2 mg/kg, iv measured after 0.25 hrs by LC-MS/MS analysis; type: ADME, organism-based; conditions: read-out: K(p,uu,brain)
[6] = Hepatic intrinsic clearance in mouse liver microsomes at 1 uM preincubated for 5 mins followed by NADPH addition and measured up to 45 mins by LC-MS/MS analysis; type: ADME, Microsome; conditions: read-out: CLH
[7] = target: Metabotropic glutamate receptor 7 (Rattus norvegicus) (UniProt P35400); assay: (§1) Positive allosteric modulation of rat mGlu7 receptor expressed in HEK293 cells co-expressing Gai5 assessed as potentiation of L-AP4-induced calcium mobilization preincubated for 140 secs and treated with EC20 L-AP4 for 125 secs and followed by subsequent addition of EC80 L-AP4 by Fluo-4-AM dye based fluorescence assay relative to maximal induction of L-AP4; type: functional, cell-based; conditions: filed as positive allosteric modulator, time 140.0 sec
[8] = Fraction unbound in mouse plasma at 5 uM incubated for 4 hrs by equilibrium dialysis based LC-MS/MS analysis; type: ADME, cell-free
[9] = Hepatic intrinsic clearance in rat liver microsomes at 1 uM preincubated for 5 mins followed by NADPH addition and measured up to 45 mins by LC-MS/MS analysis; type: ADME, Microsome; conditions: read-out: CLH
[10] = Fraction unbound in mouse brain at 5 uM incubated for 6 hrs by equilibrium dialysis based LC-MS/MS analysis; type: ADME, tissue-based
[11] = target: T1, Metabotropic glutamate receptor 7 (Rattus norvegicus, UniProt P35400); assay: as §1, with “assay” for “assay relative to maximal induction of L-AP4”; type: functional, cell-based
[12] = target: T1, Metabotropic glutamate receptor 7; assay: Positive allosteric modulation of rat mGlu7 expressed in HEK293 cells co- expressing GIRK assessed as potentiation of L-AP4-induced thallium flux incubated for 140 sec by FluoZin2-AM dye based fluorescence analysis; type: cell-based
[13] = target: Sodium-dependent dopamine transporter (Homo sapiens, UniProt Q01959); assay: Displacement of […] from recombinant human Dopamine transporter after 120 mins by scintillation counting analysis; type: ADME
[14] = target: T2, Metabotropic glutamate receptor 5 (Homo sapiens, UniProt P41594); assay: Negative allosteric modulation of mGlu5 receptor (unknown origin)
[15] = target: T3, Metabotropic glutamate receptor 8 (Homo sapiens, UniProt O00222); assay: Negative allosteric modulation of mGlu8 receptor (unknown origin)
[16] = target: T4, Metabotropic glutamate receptor 4 (Homo sapiens, UniProt Q14833); assay: Negative allosteric modulation of mGlu4 receptor (unknown origin)
[17] = target: T5, Metabotropic glutamate receptor 1 (Homo sapiens, UniProt Q13255); assay: Negative allosteric modulation of mGlu1 receptor (unknown origin)
[18] = Unbound plasma to brain permeability coefficient, Kp of the compound in rat; type: ADME, cell-free; conditions: read-out: K(p,uu,brain)
[19] = target: T6, Metabotropic glutamate receptor 2 (Homo sapiens, UniProt Q14416); assay: Negative allosteric modulation of mGlu2 receptor (unknown origin)
[20] = Plasma to brain permeability coefficient, Kp of the compound in rat; type: ADME, cell-free
[21] = target: T7, Metabotropic glutamate receptor 3 (Homo sapiens, UniProt Q14832); assay: Negative allosteric modulation of mGlu3 receptor (unknown origin)
[22] = target: T2, Metabotropic glutamate receptor 5; assay: Positive allosteric modulation of mGlu5 receptor (unknown origin)
[23] = Plasma to brain permeability coefficient, Kp of the compound in CD-1 mouse at 10 mg/kg, ip measured after 0.5 hrs by LC-MS/MS analysis; type: ADME, organism-based
[24] = Unbound plasma to brain permeability coefficient, Kp of the compound in CD-1 mouse at 10 mg/kg, ip measured after 0.5 hrs by LC-MS/MS analysis; type: ADME, organism-based; conditions: read-out: K(p,uu,brain)
[25] = target: dopamine transporter (DAT) (Homo sapiens, UniProt Q01959); assay: Displacement of […] from recombinant human Dopamine transporter at 10 uM after 120 mins by scintillation counting analysis relative to control; type: ADME
[26] = Oral bioavailability in Sprague-Dawley rat at 10 mg/kg measured upto 24 hrs by LC-MS/MS analysis; type: ADME, organism-based; conditions: in vivo
[27] = target: T4, Metabotropic glutamate receptor 4; assay: Positive allosteric modulation of mGlu4 receptor (unknown origin)
[28] = target: hERG (KCNH2) (Homo sapiens, UniProt Q12809); assay: Displacement of [3H]-Astemizole from human recombinant full length ERG channel at 10 uM incubated for 60 mins by scintillation counting analysis relative to control; conditions: probe [3H]-astemizole
[29] = target: Sigma non-opioid intracellular receptor 1 (Homo sapiens, UniProt Q99720); assay: Displacement of [3H]-Pentazocine from human recombinant sigma 1 receptor incubated for 120 mins by scintillation counting analysis relative to control
[30] = target: T3, Metabotropic glutamate receptor 8; assay: Positive allosteric modulation of mGlu8 receptor (unknown origin)
[31] = target: T5, Metabotropic glutamate receptor 1; assay: Positive allosteric modulation of mGlu1 receptor (unknown origin)
[32] = Half-life in Sprague-Dawley rat at 1 mg/kg, iv and 10 mg/kg, po measured up to 24 hrs by LC-MS/MS analysis; type: ADME, organism-based; conditions: in vivo
[33] = target: T7, Metabotropic glutamate receptor 3; assay: Positive allosteric modulation of mGlu3 receptor (unknown origin)
[34] = target: T6, Metabotropic glutamate receptor 2; assay: Positive allosteric modulation of mGlu2 receptor (unknown origin)

T1 sequence (P35400 whole entry): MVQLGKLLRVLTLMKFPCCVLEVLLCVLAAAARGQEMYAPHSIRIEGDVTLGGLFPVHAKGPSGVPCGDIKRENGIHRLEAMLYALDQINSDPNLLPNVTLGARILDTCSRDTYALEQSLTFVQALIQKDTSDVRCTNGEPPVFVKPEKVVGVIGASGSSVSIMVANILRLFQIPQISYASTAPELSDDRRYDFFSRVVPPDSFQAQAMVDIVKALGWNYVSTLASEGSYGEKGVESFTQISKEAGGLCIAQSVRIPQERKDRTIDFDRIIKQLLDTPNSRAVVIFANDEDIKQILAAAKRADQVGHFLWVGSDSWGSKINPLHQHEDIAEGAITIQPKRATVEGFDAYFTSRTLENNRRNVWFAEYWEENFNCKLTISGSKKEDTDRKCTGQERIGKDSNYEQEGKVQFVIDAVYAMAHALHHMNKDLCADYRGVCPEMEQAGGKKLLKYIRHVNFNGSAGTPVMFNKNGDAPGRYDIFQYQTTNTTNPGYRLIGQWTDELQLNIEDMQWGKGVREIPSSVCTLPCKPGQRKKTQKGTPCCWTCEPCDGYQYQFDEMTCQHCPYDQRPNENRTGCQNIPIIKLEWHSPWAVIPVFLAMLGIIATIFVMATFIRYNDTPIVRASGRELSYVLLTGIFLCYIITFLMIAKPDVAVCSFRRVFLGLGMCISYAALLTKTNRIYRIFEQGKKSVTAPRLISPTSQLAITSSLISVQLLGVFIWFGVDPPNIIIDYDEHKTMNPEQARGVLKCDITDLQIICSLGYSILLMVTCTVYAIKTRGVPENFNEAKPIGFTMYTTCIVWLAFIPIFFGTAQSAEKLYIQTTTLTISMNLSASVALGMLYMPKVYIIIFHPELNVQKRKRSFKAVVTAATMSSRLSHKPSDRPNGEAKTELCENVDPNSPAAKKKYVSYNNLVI
Chain of Metabotropic glutamate receptor 7 (Rattus norvegicus) (P35400 whole entry): as above
Chain of Sodium-dependent dopamine transporter (Q01959 whole entry): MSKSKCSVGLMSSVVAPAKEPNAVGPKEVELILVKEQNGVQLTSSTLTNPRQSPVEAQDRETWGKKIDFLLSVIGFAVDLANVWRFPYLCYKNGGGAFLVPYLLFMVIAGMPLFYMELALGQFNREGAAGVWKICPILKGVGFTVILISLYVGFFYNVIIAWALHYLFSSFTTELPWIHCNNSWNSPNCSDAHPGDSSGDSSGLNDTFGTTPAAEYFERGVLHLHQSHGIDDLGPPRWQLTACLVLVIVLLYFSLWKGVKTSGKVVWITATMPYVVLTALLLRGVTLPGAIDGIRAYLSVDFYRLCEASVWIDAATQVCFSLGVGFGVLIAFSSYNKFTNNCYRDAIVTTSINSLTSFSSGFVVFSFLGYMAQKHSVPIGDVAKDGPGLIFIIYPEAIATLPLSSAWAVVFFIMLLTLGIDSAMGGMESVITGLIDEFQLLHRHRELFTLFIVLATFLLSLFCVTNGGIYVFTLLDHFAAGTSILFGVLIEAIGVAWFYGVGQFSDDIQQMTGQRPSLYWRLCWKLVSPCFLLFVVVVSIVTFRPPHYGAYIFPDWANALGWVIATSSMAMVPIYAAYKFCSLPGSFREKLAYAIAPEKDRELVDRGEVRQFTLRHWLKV
T3 sequence (O00222 whole entry): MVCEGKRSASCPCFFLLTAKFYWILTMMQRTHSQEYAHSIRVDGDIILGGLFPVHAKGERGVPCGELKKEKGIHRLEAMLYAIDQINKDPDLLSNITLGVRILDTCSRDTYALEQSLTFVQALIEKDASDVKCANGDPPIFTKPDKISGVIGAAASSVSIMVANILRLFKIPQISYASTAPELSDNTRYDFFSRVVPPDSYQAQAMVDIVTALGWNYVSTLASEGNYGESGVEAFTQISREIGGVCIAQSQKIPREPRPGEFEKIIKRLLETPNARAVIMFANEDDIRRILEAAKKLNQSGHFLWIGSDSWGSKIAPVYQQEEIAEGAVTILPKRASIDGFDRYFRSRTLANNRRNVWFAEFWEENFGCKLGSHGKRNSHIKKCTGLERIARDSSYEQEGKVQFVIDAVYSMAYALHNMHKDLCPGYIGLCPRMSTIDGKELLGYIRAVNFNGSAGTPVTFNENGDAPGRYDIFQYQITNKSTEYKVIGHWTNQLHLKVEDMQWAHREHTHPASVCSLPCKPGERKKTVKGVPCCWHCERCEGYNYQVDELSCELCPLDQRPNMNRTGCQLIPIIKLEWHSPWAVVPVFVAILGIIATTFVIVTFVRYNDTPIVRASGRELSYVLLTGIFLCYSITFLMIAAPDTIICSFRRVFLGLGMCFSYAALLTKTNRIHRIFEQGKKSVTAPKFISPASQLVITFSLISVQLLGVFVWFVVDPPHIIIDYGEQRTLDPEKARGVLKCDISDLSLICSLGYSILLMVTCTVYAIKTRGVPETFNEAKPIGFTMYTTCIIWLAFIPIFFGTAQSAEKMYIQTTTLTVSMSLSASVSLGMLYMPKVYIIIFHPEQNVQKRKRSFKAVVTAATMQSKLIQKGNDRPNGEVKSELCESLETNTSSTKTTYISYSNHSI
T2 sequence (P41594 whole entry): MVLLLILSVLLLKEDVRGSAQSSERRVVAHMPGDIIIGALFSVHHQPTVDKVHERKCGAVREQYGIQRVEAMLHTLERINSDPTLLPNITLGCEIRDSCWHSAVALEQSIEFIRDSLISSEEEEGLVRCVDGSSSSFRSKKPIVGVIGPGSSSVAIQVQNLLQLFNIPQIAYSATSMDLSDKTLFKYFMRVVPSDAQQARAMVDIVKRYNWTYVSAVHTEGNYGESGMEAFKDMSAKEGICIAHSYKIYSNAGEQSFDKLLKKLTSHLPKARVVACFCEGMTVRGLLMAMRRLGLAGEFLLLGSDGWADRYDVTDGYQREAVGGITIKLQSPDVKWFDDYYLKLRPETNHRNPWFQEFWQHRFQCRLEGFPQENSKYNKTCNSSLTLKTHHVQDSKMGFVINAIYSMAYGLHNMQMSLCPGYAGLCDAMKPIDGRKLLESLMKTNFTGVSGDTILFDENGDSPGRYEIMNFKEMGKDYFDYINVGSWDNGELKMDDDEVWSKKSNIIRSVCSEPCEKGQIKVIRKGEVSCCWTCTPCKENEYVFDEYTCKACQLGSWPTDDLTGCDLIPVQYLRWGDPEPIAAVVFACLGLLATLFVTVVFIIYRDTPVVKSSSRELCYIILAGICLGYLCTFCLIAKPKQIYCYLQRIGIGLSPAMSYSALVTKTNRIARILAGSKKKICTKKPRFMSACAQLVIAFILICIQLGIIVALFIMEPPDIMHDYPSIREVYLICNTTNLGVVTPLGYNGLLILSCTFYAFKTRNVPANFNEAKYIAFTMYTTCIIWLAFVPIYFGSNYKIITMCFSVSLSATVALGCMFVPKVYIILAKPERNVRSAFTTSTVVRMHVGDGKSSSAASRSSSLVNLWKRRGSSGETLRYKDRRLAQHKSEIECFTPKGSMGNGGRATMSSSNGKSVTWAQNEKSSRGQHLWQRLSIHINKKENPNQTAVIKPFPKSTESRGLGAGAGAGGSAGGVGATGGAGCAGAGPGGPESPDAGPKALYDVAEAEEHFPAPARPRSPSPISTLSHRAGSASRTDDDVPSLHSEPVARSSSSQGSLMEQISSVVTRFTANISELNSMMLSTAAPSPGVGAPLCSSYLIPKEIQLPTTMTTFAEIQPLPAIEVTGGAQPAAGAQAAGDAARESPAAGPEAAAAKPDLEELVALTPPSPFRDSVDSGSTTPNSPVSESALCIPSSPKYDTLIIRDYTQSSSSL
T4 sequence (Q14833 whole entry): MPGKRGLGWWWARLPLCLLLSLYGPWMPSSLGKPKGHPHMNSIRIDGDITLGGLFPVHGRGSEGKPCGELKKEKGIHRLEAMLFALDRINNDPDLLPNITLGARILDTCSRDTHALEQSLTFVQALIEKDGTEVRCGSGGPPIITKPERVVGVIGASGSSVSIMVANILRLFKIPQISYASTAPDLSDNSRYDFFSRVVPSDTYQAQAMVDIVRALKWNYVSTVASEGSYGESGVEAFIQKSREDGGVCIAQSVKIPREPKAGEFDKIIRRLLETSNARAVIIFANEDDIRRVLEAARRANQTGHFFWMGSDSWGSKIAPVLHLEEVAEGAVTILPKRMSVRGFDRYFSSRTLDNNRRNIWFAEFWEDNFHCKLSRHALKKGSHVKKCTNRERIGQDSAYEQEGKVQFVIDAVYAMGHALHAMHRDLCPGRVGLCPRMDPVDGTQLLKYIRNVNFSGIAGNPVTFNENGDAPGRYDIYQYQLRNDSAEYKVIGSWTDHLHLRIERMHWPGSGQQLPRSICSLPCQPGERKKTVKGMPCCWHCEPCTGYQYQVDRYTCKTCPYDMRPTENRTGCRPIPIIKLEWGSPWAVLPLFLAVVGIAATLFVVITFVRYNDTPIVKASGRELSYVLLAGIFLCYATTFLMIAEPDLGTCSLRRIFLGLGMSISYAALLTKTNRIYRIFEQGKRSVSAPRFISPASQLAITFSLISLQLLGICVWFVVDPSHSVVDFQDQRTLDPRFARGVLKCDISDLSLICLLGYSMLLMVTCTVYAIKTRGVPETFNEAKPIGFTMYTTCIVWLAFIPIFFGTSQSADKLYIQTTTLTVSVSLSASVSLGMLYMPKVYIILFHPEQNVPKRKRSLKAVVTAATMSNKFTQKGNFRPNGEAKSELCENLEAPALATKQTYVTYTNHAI
Chain of dopamine transporter (DAT) (Q01959 whole entry): as the sequence (Q01959 whole entry) above
Chain of Sigma non-opioid intracellular receptor 1 (Q99720 whole entry): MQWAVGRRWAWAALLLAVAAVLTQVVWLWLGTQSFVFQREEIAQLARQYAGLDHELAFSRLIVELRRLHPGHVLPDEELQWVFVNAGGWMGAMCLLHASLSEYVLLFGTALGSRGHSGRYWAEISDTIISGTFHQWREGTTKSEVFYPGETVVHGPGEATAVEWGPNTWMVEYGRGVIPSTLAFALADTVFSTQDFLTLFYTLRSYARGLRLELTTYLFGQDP

N#Cc1cnc2c(N3CCOCC3)cccc2c1N1CCN(c2ccccc2F)CC1
Activity [1]: 29.5% | fraction unbound at 4 h, 5 µM [2]: 0.01 | Kp at 0.25 h [3]: 6.84 | fraction unbound at 6 h, 5 µM [4]: 0.002 | Kp uu at 0.25 h [5]: 1.24 | CLint scaled at 1 µM [6]: 76.2 mL/min/kg | Activity [7]: 72% | fraction unbound at 4 h, 5 µM [8]: 0.01 | CLint scaled at 1 µM [9]: 58.6 mL/min/kg | fraction unbound at 6 h, 5 µM [10]: 0.002 | EC50 ([11]; read-out: EC50): 1300 nM | EC50 [12]: 710 nM | Ki [13]: > 10000 nM

N#Cc1cnc2c(OCC3CCOC3)cccc2c1N1CCN(c2ccccc2F)CC1 (stereo in doubt; (-)-20f)
EC50 ([11]; read-out: EC50): 1300 nM

N#Cc1cnc2c(OCC3CCOC3)cccc2c1N1CCN(c2ccccc2F)CC1 (single isomer, unassigned; (+))
Activity [7]: 77%

N#Cc1cnc2c(OC3CCC3)cccc2c1N1CCN(c2ccccc2F)CC1
Activity [7]: 67% | EC50 ([11]; read-out: EC50): 1800 nM

N#Cc1cnc2c(OC3CCOC3)cc(F)cc2c1N1CCN(c2ccccc2F)CC1 (centres undefined)
Activity [7]: 71% | EC50 ([11]; read-out: EC50): 510 nM

COc1c(F)ccc2c(N3CCN(c4ccccc4F)CC3)c(C#N)cnc12
Activity [7]: 53% | EC50 ([11]; read-out: EC50): 1800 nM | IC50 [13]: 3000 nM

N#Cc1cnc2c(N3CCC(F)(F)CC3)cccc2c1N1CCN(c2ccccc2F)CC1
Activity [7]: 22% | EC50 ([11]; read-out: EC50): > 10000 nM

CCOC(=O)c1cnc2c(OC)cccc2c1N1CCN(c2ccccc2F)CC1
IC50 [14]: > 30000 nM | IC50 [15]: > 30000 nM | IC50 [16]: > 30000 nM | IC50 [17]: > 30000 nM | Kp uu [18]: 0.96 | IC50 [19]: > 30000 nM | Kp [20]: 4.7 | IC50 [21]: > 30000 nM

CC(C)Oc1cccc2c(N3CCN(c4ccccc4F)CC3)c(C#N)cnc12
Activity [7]: 67% | EC50 ([11]; read-out: EC50): 1250 nM

[2H]C([2H])([2H])Oc1cc(F)cc2c(N3CCN(c4ccccc4F)CC3)c(C#N)cnc12
EC50 [22]: > 30000 nM | Kp at 0.5 h [23]: 2.74 | fraction unbound at 4 h, 5 µM [2]: 0.01 | Kp uu at 0.5 h [24]: 0.23 | inhibition at 2 h, 10 µM [25]: < 50% | Kp at 0.25 h [3]: 4.78 | bioavailability [26]: 69.5% | fraction unbound at 6 h, 5 µM [4]: 0.002 | Kp uu at 0.25 h [5]: 0.96 | EC50 [27]: > 30000 nM | inhibition at 1 h, 10 µM [28]: < 50% | CLint scaled at 1 µM [6]: 84.4 mL/min/kg | fraction unbound at 4 h, 5 µM [8]: 0.01 | IC50 [29]: 3500 nM | EC50 [30]: > 10000 nM | EC50 [31]: > 30000 nM | CLint scaled at 1 µM [9]: 46.9 mL/min/kg | fraction unbound at 6 h, 5 µM [10]: 0.001 | EC50 ([11]; read-out: EC50): 1100 nM | EC50 ([11]; read-out: pEC50 (converted)): 1580 nM | half-life [32]: 7.5 h | EC50 [33]: > 30000 nM | EC50 [12]: 990 nM | EC50 [34]: > 30000 nM | Ki [13]: > 10000 nM

CC(C)Oc1cc(F)cc2c(N3CCN(c4ccccc4F)CC3)c(C#N)cnc12
Activity [1]: 54.5% | fraction unbound at 4 h, 5 µM [2]: 0.005 | Kp at 0.25 h [3]: 4.99 | fraction unbound at 6 h, 5 µM [4]: 0.001 | Kp uu at 0.25 h [5]: 1 | CLint scaled at 1 µM [6]: 76.2 mL/min/kg | Activity [7]: 82% | fraction unbound at 4 h, 5 µM [8]: 0.004 | CLint scaled at 1 µM [9]: 50.7 mL/min/kg | fraction unbound at 6 h, 5 µM [10]: 0.001 | EC50 ([11]; read-out: EC50): 690 nM | EC50 [12]: 750 nM | Ki [13]: > 10000 nM

N#Cc1cnc2c(OCC3CCOC3)cccc2c1N1CCN(c2ccccc2F)CC1 (racemic) [listing 1 of 2 here]
Activity [7]: 88%

N#Cc1cnc2c(-n3cccn3)cccc2c1N1CCN(c2ccccc2F)CC1
Activity [7]: 22% | EC50 ([11]; read-out: EC50): > 10000 nM

N#Cc1cnc2c(O)cc(F)cc2c1N1CCN(c2ccccc2F)CC1
Activity [7]: 90% | EC50 ([11]; read-out: EC50): > 10000 nM

N#Cc1cnc2c(OCC3CCOC3)cccc2c1N1CCN(c2ccccc2F)CC1 (racemic) [listing 2 of 2 here]
EC50 ([11]; read-out: EC50): 1300 nM

N#Cc1cnc2c(OC3CCOC3)cccc2c1N1CCN(c2ccccc2F)CC1 (racemic)
Activity [1]: 62.2% | Activity [7]: 74%

CC1CN(c2cccc3c(N4CCN(c5ccccc5F)CC4)c(C#N)cnc23)CCO1 (centres undefined)
Activity [7]: 84% | EC50 ([11]; read-out: EC50): 7100 nM

N#Cc1cnc2c(-n3ccnc3)cccc2c1N1CCN(c2ccccc2F)CC1
Activity [7]: 81% | EC50 ([11]; read-out: EC50): 6700 nM
